# From US12509459B2, “Inhibitors of NLRP3 inflammasome” (BioAge Labs, Inc., priority 2024, dated 2025)
# Biological target: NLRP3 (Homo sapiens, UniProt Q96P20)
# Assay: THP-1 cell-based NLRP3 activation assay
# Parameters: endogenous in cells; host or cells: THP-1 cells (PMA-differentiated, LPS-primed, nigericin-stimulated)
# Conditions: PMA-differentiated THP-1 cells, LPS 100 ng/mL then 10 μM nigericin
# Method in brief: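 After 30 min compound preincubation, inflammasome activation was triggered with 10 μM nigericin (1 h) in LPS-primed (100 ng/mL, 3 h) THP-1 cells differentiated with PMA at 20 nM/24 h or 500 nM/3 h. CellTiter-Glo measured residual cell viability.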
# Sequence of NLRP3 (Q96P20 whole entry): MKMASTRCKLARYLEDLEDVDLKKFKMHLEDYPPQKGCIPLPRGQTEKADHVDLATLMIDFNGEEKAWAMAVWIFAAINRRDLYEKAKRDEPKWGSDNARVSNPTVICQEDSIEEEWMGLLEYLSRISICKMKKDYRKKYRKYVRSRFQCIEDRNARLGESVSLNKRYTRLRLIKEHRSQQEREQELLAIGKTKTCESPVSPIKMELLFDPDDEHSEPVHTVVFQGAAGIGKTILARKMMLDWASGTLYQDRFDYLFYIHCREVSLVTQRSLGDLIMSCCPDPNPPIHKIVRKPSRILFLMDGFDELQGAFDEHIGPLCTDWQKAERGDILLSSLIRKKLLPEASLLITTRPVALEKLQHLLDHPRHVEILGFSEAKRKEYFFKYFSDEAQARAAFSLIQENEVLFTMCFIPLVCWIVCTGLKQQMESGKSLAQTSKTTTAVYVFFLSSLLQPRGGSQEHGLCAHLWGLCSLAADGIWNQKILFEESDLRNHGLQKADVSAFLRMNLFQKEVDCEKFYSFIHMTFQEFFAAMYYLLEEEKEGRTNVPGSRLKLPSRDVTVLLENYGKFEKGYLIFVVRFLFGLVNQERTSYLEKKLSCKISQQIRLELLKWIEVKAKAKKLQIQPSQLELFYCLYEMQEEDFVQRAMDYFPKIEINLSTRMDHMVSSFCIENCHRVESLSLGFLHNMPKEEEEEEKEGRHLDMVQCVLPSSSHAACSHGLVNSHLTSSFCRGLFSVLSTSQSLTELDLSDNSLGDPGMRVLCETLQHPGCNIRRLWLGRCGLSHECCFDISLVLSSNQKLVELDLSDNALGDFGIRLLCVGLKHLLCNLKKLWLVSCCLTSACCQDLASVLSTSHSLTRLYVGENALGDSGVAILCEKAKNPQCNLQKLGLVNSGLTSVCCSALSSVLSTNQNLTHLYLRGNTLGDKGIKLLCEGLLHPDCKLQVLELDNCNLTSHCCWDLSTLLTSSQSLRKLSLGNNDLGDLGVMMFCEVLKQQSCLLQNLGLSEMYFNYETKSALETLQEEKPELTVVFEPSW
row,IC50 [µM],SMILES
1,< 0.1,CCOc1cc(C(=O)N(C)[C@H](CCN(C)CCO)c2cncc3cn[nH]c23)ccc1-c1cccc(Cl)c1 [Compound 230]
2,< 0.1,[2H]C([2H])([2H])NCC[C@H](c1cncc2cn[nH]c12)N(C)C(=O)c1ccc(-c2cccc(F)c2)c(OCC)c1 [Compound 231]
3,< 0.1,CCOc1cc(C(=O)N(C)[C@H](CCNC)c2cncc3cn[nH]c23)ccc1-c1cccc(C#N)c1 [Compound 232]
4,< 0.1,CCOc1cc(C(=O)N(C)[C@H](CCNC)c2cccc3cn[nH]c23)ccc1-c1cccc(Cl)c1 [Compound 233]
5,1 to 15,CCOc1cc(C(=O)N(Cc2cncc3cn[nH]c23)[C@H]2C[C@@H](NC)C2)ccc1-c1cccc(F)c1 [Compound 234]
6,0.1 to 0.5,CCOc1cc(C(=O)N(Cc2cncc3cn[nH]c23)C2CC(NC)C2)ccc1-c1cccc(F)c1 (stereo not shown) [Compound 235]
7,< 0.1,CCOc1cc(C(=O)N(Cc2cncc3cn[nH]c23)C2CC(NC)C2)ccc1-c1cccc(Cl)c1 (stereo not shown) [Compound 236]
8,1 to 15,CCOc1cc(C(=O)N(Cc2cncc3cn[nH]c23)C2CC(NC)C2)ccc1-c1ccccc1 (stereo not shown) [Compound 237]
9,< 0.1,CCOc1cc(C(=O)N(Cc2cncc3cn[nH]c23)[C@H]2C[C@@H](NC)C2)ccc1-c1cccc(Cl)c1 [Compound 238]
10,< 0.1,CCOc1cc(C(=O)N(Cc2cncc3cn[nH]c23)[C@H]2C[C@@H](NC)C2)ccc1-c1ccccc1 [Compound 239]
11,0.5 to 1,CCOc1cc(C(=O)N(Cc2cncc3cn[nH]c23)C2CC(N(C)C)C2)ccc1-c1cccc(F)c1 (stereo not shown) [Compound 240]
12,< 0.1,CCOc1cc(C(=O)N(C)C(c2cccc3cn[nH]c23)C2CN(C)C2)ccc1-c1cccc(Cl)c1 (stereo not shown) [Compound 241]
13,0.1 to 0.5,CCOc1cc(C(=O)N(Cc2cncc3cn[nH]c23)C2CC(N(C)C)C2)ccc1-c1cccc(Cl)c1 (stereo not shown) [Compound 242]
14,1 to 15,CCOc1cc(C(=O)N(Cc2cncc3cn[nH]c23)C2CC(N(C)C)C2)ccc1-c1ccccc1 (stereo not shown) [Compound 243]
15,< 0.1,CCOc1cc(C(=O)N(Cc2cncc3cn[nH]c23)[C@H]2C[C@@H](N(C)C)C2)ccc1-c1cccc(F)c1 [Compound 244]
16,< 0.1,CCOc1cc(C(=O)N(Cc2cncc3cn[nH]c23)[C@H]2C[C@@H](N(C)C)C2)ccc1-c1ccccc1 [Compound 245]
17,< 0.1,CCOc1cc(C(=O)N(C)C(CN2CC(O)C2)c2cncc3cn[nH]c23)ccc1-c1cccc(F)c1 (stereo not shown) [Compound 246]
18,< 0.1,CCOc1cc(C(=O)N(C)C(CN2CCC(O)C2)c2cncc3cn[nH]c23)ccc1-c1cccc(F)c1 (stereo not shown) [Compound 247]
19,< 0.1,CCOc1cc(C(=O)N(Cc2cncc3cn[nH]c23)[C@H]2C[C@@H](CN)C2)ccc1-c1cccc(F)c1 [Compound 248]

row,IC50 [µM],SMILES
1,< 0.1,CCOc1cc(C(=O)N(Cc2cncc3cn[nH]c23)[C@H]2C[C@@H](CN(C)C)C2)ccc1-c1cccc(F)c1 [Compound 249]
2,< 0.1,CCOc1cc(C(=O)N(Cc2cccc3cn[nH]c23)[C@H]2C[C@@H](N)C2)ccc1-c1cccc(F)c1 [Compound 250]
3,< 0.1,CCOc1cc(C(=O)N(Cc2cccc3cn[nH]c23)[C@H]2C[C@@H](N(C)C)C2)ccc1-c1cccc(F)c1 [Compound 251]
4,< 0.1,CCOc1cc(C(=O)N(Cc2cccc3cn[nH]c23)[C@H]2C[C@@H](NC)C2)ccc1-c1cccc(F)c1 [Compound 252]
5,< 0.1,CCOc1cc(C(=O)N(Cc2cncc3cn[nH]c23)[C@H]2C[C@@H](N(C)C)C2)ccc1-c1cccc(Cl)c1 [Compound 253]
6,< 0.1,CCOc1cc(C(=O)N(C)[C@H](CC[N+](C)([O-])CC)c2cncc3cn[nH]c23)ccc1-c1cccc(Cl)c1 (stereo partly shown) [Compound 254]
7,< 0.1,CCOc1cc(C(=O)N(C)[C@H](CC[N+]([O-])(CC)CC)c2cncc3cn[nH]c23)ccc1-c1cccc(Cl)c1 [Compound 255]
8,0.1 to 0.5,CCOc1cc(C(=O)N(C)[C@H](CN(C)C)c2cccc3cn[nH]c23)ccc1-c1cccc(F)c1 [Compound 256]
9,< 0.1,CCOc1cc(C(=O)N(C)[C@@H](CN(C)C)c2cccc3cn[nH]c23)ccc1-c1cccc(F)c1 [Compound 257]
10,0.1 to 0.5,CCOc1cc(C(=O)N(C)C(CN(C)CC)c2cccc3cn[nH]c23)ccc1-c1cccc(F)c1 (stereo not shown) [Compound 258]
11,< 0.1,CCOc1cc(C(=O)N(C)[C@@H](CN(C)CC)c2cccc3cn[nH]c23)ccc1-c1cccc(F)c1 [Compound 259]
12,1 to 15,CCOc1cc(C(=O)N(C)[C@H](CN(CC)CC)c2cccc3cn[nH]c23)ccc1-c1cccc(F)c1 [Compound 260]
13,< 0.1,CCOc1cc(C(=O)N(C)C(CN(CC)CC)c2cccc3cn[nH]c23)ccc1-c1cccc(F)c1 (stereo not shown) [Compound 261]
14,< 0.1,CCOc1cc(C(=O)N(C)[C@H](CCN(C)CCO)c2cncc3cn[nH]c23)ccc1-c1cccc(F)c1 [Compound 262]
15,< 0.1,CCOc1cc(C(=O)N(C)[C@H](CCN(C)CCOC)c2cncc3cn[nH]c23)ccc1-c1cccc(F)c1 [Compound 263]
16,< 0.1,CCOc1cc(C(=O)N(C)C(CN2CCC2)c2cccc3cn[nH]c23)ccc1-c1cccc(F)c1 (stereo not shown) [Compound 264]
17,< 0.1,CCOc1cc(C(=O)N(Cc2cccc3cn[nH]c23)[C@H]2C[C@@H](NC)C2)ccc1-c1cccc(C#N)c1 [Compound 265]
18,< 0.1,CCOc1cc(C(=O)N(Cc2ccc(C)c3cn[nH]c23)[C@H]2C[C@@H](NC)C2)ccc1-c1cccc(F)c1 [Compound 266]

# The next lines start with the molecule.
row,SMILES,IC50 [µM]
1,CN(C)CC[C@H](c1cccc2cn[nH]c12)N(C)C(=O)c1ccc(-c2ccccc2)c(OC2CC2)c1 [Compound 199],< 0.1
2,CCOc1cc(C(=O)N(C)[C@H](CCN(C)C)c2ccc(C)c3cn[nH]c23)ccc1-c1cccc(F)c1 [Compound 200],0.1 to 0.5
3,CCOc1cc(C(=O)N(C)[C@@H](CCN(C)C)c2ccc(C)c3cn[nH]c23)ccc1-c1cccc(F)c1 [Compound 201],0.1 to 0.5
4,Cc1ccc([C@@H](CCN(C)C)N(C)C(=O)c2ccc(-c3cccc(F)c3)c(OC3CC3)c2)c2[nH]ncc12 [Compound 202],< 0.1
5,Cc1ccc([C@H](CCN(C)C)N(C)C(=O)c2ccc(-c3cccc(F)c3)c(OC3CC3)c2)c2[nH]ncc12 [Compound 203],< 0.1
6,CCOc1cc(C(=O)N(C)[C@H](CCN(C)C)c2ccc(C)c3cn[nH]c23)ccc1-c1ccccc1 [Compound 204],0.1 to 0.5
7,CCOc1cc(C(=O)N(C)[C@@H](CCN(C)C)c2ccc(C)c3cn[nH]c23)ccc1-c1ccccc1 [Compound 205],< 0.1
8,CCOc1cc(C(=O)N(C)[C@H](CC[N+](C)(C)[O-])c2cccc3cn[nH]c23)ccc1-c1cccc(Cl)c1 [Compound 206],< 0.1
9,CCOc1cc(C(=O)N(C)[C@H](CC[N+]([O-])(CC)CC)c2cccc3cn[nH]c23)ccc1-c1cccc(Cl)c1 [Compound 207],< 0.1
10,CCOc1cc(C(=O)N(C)[C@H](CN(C)C)c2cncc3cn[nH]c23)ccc1C(C)C [Compound 208],1 to 15
11,CCOc1cc(C(=O)N(C)[C@@H](CN(C)C)c2cncc3cn[nH]c23)ccc1C(C)C [Compound 209],< 0.1
12,CCOc1cc(C(=O)N(C)[C@H](CC[N+](C)(C)[O-])c2cncc3cn[nH]c23)ccc1-c1cccc(Cl)c1 [Compound 210],1 to 15
13,CCOc1cc(C(=O)N(C)[C@@H](CCN(C)C)c2cccc3cn[nH]c23)ccc1-c1ccccc1 [Compound 212],< 0.1
14,CCOc1cc(C(=O)N(C)[C@H](CCN(C)C)c2cccc3cn[nH]c23)ccc1-c1cccc(Cl)c1 [Compound 213],< 0.1
15,CCOc1cc(C(=O)N(C)[C@H](CCN(C)CC)c2cccc3cn[nH]c23)ccc1-c1cccc(F)c1 [Compound 214],< 0.1
16,CCOc1cc(C(=O)N(C)[C@H](CCN(CC)CC)c2cccc3cn[nH]c23)ccc1-c1cccc(F)c1 [Compound 215],< 0.1
17,CCOc1cc(C(=O)N(C)[C@H](CC[N+]([O-])(CC)CC)c2cccc3cn[nH]c23)ccc1-c1cccc(F)c1 [Compound 216],< 0.1
18,CCOc1cc(C(=O)N(C)[C@H](CCN2CCC2)c2cccc3cn[nH]c23)ccc1-c1cccc(F)c1 [Compound 217],< 0.1
19,CCOc1cc(C(=O)N(C)[C@H](CCN2CCC2)c2cccc3cn[nH]c23)ccc1-c1cccc(Cl)c1 [Compound 218],< 0.1
20,CCOc1cc(C(=O)N(C)[C@H](CCN(C)C)c2cccc3cn[nH]c23)ccc1-c1cc(F)cc(F)c1 [Compound 219],< 0.1
21,CCOc1cc(C(=O)N(C)[C@H](CN(C)C)c2cccc3cn[nH]c23)ccc1-c1cccc(Cl)c1 [Compound 220],0.1 to 0.5
22,CCOc1cc(C(=O)N(C)[C@@H](CN(C)C)c2cccc3cn[nH]c23)ccc1-c1cccc(Cl)c1 [Compound 221],< 0.1
23,CCOc1cc(C(=O)N(C)[C@H](CN2CCCC2)c2cccc3cn[nH]c23)ccc1-c1cccc(F)c1 [Compound 222],0.5 to 1
24,CCOc1cc(C(=O)N(C)[C@@H](CN2CCCC2)c2cccc3cn[nH]c23)ccc1-c1cccc(F)c1 [Compound 223],< 0.1
25,CCOc1cc(C(=S)N(C)[C@H](CCN(C)C)c2cncc3cn[nH]c23)ccc1-c1cccc(F)c1 [Compound 224],< 0.1
26,CN(C(=O)c1ccc(-c2cccc(F)c2)c(OC2CC2)c1)[C@H](CCN1CCC1)c1cncc2cn[nH]c12 [Compound 225],< 0.1
27,CCOc1cc(C(=O)N(C)C(CN(C)C)c2cncc3cn[nH]c23)ccc1-c1ccccc1 (stereo not shown) [Compound 226],0.1 to 0.5
28,CCOc1cc(C(=O)N(C)[C@H](CC[N+](C)(C)[O-])c2cccc3cn[nH]c23)ccc1-c1cccc(F)c1 [Compound 227],< 0.1
29,CCOc1cc(C(=O)N(C)[C@H](CCNC)c2cncc3cn[nH]c23)ccc1-c1cccc(Cl)c1 [Compound 228],< 0.1
30,CCOc1cc(C(=O)N(C)[C@H](CCN(C)CCOC)c2cncc3cn[nH]c23)ccc1-c1cccc(Cl)c1 [Compound 229],< 0.1
